For 44 compounds, IC50 and inhibition results are on record in patent US6525059B1, “Substituted pyrazoles as p38 kinase inhibitors” (G. D. Searle & Company, priority 1998, dated 2003).

Broadly, the IC50 is the concentration that inhibits the measured activity by half.

Where two headings read alike, the source gives them in different places. Bounds are passed on as bounds.

For one assay, the target named is T1, human p38 kinase alpha (Homo sapiens, UniProt Q16539).
T1 construct: The coding region of the human p38a cDNA was obtained by PCR-amplification from RNA isolated from the human monocyte cell line THP.1; GST (N); made in house; host or cells: E. coli DH10B
T1 sequence (Q16539 whole entry): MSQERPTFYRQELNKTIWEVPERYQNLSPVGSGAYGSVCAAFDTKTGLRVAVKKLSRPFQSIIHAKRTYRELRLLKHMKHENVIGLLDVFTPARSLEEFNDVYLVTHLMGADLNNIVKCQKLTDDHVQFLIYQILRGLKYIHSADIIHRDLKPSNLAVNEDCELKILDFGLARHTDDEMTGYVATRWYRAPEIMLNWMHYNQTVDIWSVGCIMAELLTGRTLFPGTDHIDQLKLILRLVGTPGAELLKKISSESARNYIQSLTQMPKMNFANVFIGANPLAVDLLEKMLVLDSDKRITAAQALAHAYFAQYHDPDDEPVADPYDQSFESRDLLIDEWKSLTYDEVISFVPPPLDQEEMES
In words: p38 kinase in vitro assay, phosphorylation of biotinylated PHAS-I with gamma 32P-ATP. The settings on record: for inhibition at 1 µM / inhibition at 10 µM: read-out: P38 alpha kinase % inhib @ conc. Type of assay: biochemical. The procedure, abridged: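 MKK6-activated human p38α phosphorylates biotinylated PHAS-I with γ-32P-ATP in 25 mM HEPES pH 7.5, 10 mM Mg acetate, 50 μM unlabeled ATP, 1% DMSO, 30 °C for 1 h or overnight. Compounds at 100–0.001 μM (10-fold steps, triplicate); substrate captured on streptavidin filter plates and counted by scintillation.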

The subject of the next assay is TNF-α. In words: LPS stimulation of TNF production by U937 cells. Format: cell-based, human. Particulars: Homo sapiens; for inhibition at 1 µM: U-937, @ 1.0 uM, read-out: U937 Cell % inhib @ conc. The procedure, abridged: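 PMA-differentiated human U937 cells (20 ng/ml PMA, 24 h, then 24-48 h rest) at 2 million cells/ml, 0.1% DMSO final, stimulated with E. coli LPS (100 ng/ml final) for 4 h at 37° C. TNF-α in medium measured by ELISA; IC50 in μM.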

The mark [1] stands for this setting: read-out: P38 alpha kinase IC50.
[2] abbreviates: U-937, TNF production, LPS-stimulated human U937 cells, read-out: U937 Cell IC50.
Setting [3] is: p38α in vitro, PHAS-I assay procedure, read-out: p38^1 IC50.
The mark [4] stands for this setting: U-937, LPS-stimulated U937 cells, read-out: U937 IC50.

For the compound `C[C@@H](NC(=O)c1ccccc1Cl)c1[nH]nc(-c2ccc(F)cc2)c1-c1ccncc1` [Example B-0514], the IC50 on human p38 kinase alpha (setting [1]) is 140 nM. The inhibition at 1 µM with TNF-α amounted to 87%.

As for `O=S(=O)(NCc1[nH]nc(-c2ccc(F)cc2)c1-c1ccncc1)c1ccc(S(=O)(=O)c2ccccc2)s1` [Example B-0263], on human p38 kinase alpha (setting [1]), the IC50 was 620 nM. Also, the inhibition at 1 µM in the assay with TNF-α turned out to be 64%.

On to `CC(C)COC(=O)NCc1[nH]nc(-c2ccc(F)cc2)c1-c1ccncc1` [Example B-0009], for which the IC50 is 40 nM at human p38 kinase alpha (setting [1]) and 720 nM in the assay with TNF-α (setting [2]).

Take `COc1cc(C(=O)NCc2[nH]nc(-c3ccc(F)cc3)c2-c2ccncc2)cc(OC)c1OC` [Example B-0085]: the inhibition at 1 µM at human p38 kinase alpha was 83%; in the assay on TNF-α, 21%.

Take `C[C@@H](NS(=O)(=O)c1ccccc1Cl)c1[nH]nc(-c2ccc(F)cc2)c1-c1ccncc1` [Example B-0463]: at human p38 kinase alpha (setting [1]), the IC50 is 52 nM. Besides, in the assay on TNF-α, the inhibition at 1 µM turned out to be 95%.

With `CC(C)S(=O)(=O)N[C@H](C)c1[nH]nc(-c2ccc(F)cc2)c1-c1ccncc1` [Example B-0387], the IC50 on human p38 kinase alpha (setting [1]) is 410 nM. The inhibition at 1 µM in the assay on TNF-α amounted to 52%.

Regarding `O=S(=O)(NCc1[nH]nc(-c2ccc(F)cc2)c1-c1ccncc1)c1ccc(F)cc1Cl` [Example B-0231], the IC50 on human p38 kinase alpha (setting [1]) was 55 nM. For the same compound, the inhibition at 1 µM in the assay with TNF-α was determined as 40%.

Regarding `CCN(CC)CCn1cc(-c2ccncc2)c(-c2ccc(F)cc2)n1` [Example A-284, N,N-diethyl-3-(4-fluorophenyl)-4-(4-pyridinyl)-1H-pyrazole-1-ethanamine], the IC50 is 980 nM on human p38 kinase alpha (setting [3]) and 509 nM with TNF-α (setting [4]).

As for `Cc1ccc(S(=O)(=O)N[C@H](C)c2[nH]nc(-c3ccc(F)cc3)c2-c2ccncc2)cc1` [Example B-0399], the IC50 on human p38 kinase alpha (setting [1]) was 140 nM. In addition, the inhibition at 1 µM in the assay with TNF-α came out at 39%.

Take `O=S(=O)(NCc1[nH]nc(-c2ccc(F)cc2)c1-c1ccncc1)c1cccc2cnccc12` [Example B-0265]: at human p38 kinase alpha (setting [1]), the half-maximal inhibitory concentration (IC50) is 920 nM. Besides, the inhibition at 1 µM in the assay with TNF-α stood at 24%.

As for `Cc1c(C)c(S(=O)(=O)NCc2[nH]nc(-c3ccc(F)cc3)c2-c2ccncc2)c(C)c2c1OC(C)(C)CC2` [Example B-0257], at human p38 kinase alpha (setting [1]), the IC50 was 1710 nM. Moreover, the inhibition at 1 µM with TNF-α is 11%.

As to `CCc1ccccc1NC(=O)NCc1[nH]nc(-c2ccc(F)cc2)c1-c1ccncc1` [Example B-0169], the inhibition at 1 µM at human p38 kinase alpha was determined as 43%; in the assay with TNF-α, 21%.

`O=C(NCc1[nH]nc(-c2ccc(F)cc2)c1-c1ccncc1)c1ccc(Cl)c(Cl)c1` [Example B-0071]: the inhibition at 1 µM at human p38 kinase alpha was 86%; with TNF-α it was 31%.

In the case of `C[C@@H](NS(C)(=O)=O)c1[nH]nc(-c2ccc(F)cc2)c1-c1ccncc1` [Example B-0396], the values for the IC50 at human p38 kinase alpha (setting [1]) and in the assay on TNF-α (setting [2]) were 97 nM and 440 nM, respectively.

Consider `O=C(NCc1[nH]nc(-c2ccc(F)cc2)c1-c1ccncc1)Nc1cc(Cl)cc(Cl)c1` [Example B-0164], for which the inhibition at 10 µM at human p38 kinase alpha amounted to 37%. Further, the inhibition at 1 µM in the assay with TNF-α is 20%.

Turning to `C[C@@H](NS(=O)(=O)c1ccccc1C#N)c1[nH]nc(-c2ccc(F)cc2)c1-c1ccncc1` [Example B-0450], the IC50 at human p38 kinase alpha (setting [1]) amounted to 260 nM. Also, the inhibition at 1 µM in the assay with TNF-α was 81%.

For the compound `C[C@@H](NC(=O)c1c(F)cc(F)cc1F)c1[nH]nc(-c2ccc(F)cc2)c1-c1ccncc1` [Example B-0507], on human p38 kinase alpha (setting [1]), the IC50 turned out to be 180 nM. The inhibition at 1 µM in the assay on TNF-α stood at 75%.

Turning to `Cc1ccc(C(=O)NCc2[nH]nc(-c3ccc(F)cc3)c2-c2ccncc2)cc1` [Example B-0269], the IC50 at human p38 kinase alpha (setting [1]) was 9810 nM. The inhibition at 1 µM in the assay on TNF-α came to 19%.

With `CC(Oc1ccccc1)C(=O)NCc1[nH]nc(-c2ccc(F)cc2)c1-c1ccncc1` (stereo not shown) [Example B-0202], the IC50 is 550 nM on human p38 kinase alpha (setting [1]) and 2260 nM with TNF-α (setting [2]).

As for `O=C(NCc1[nH]nc(-c2ccc(F)cc2)c1-c1ccncc1)C1CCCC1` [Example B-0079], the inhibition at 1 µM amounted to 93% on human p38 kinase alpha and 13% with TNF-α.

Turning to `Cc1ccc(C)c(S(=O)(=O)N[C@H](C)c2[nH]nc(-c3ccc(F)cc3)c2-c2ccncc2)c1` [Example B-0468], the IC50 at human p38 kinase alpha (setting [1]) was 31 nM. Besides, in the assay on TNF-α, the inhibition at 1 µM stood at 93%.

Regarding `C[C@@H](NC(=O)c1c(Cl)cccc1Cl)c1[nH]nc(-c2ccc(F)cc2)c1-c1ccncc1` [Example B-0519], the IC50 at human p38 kinase alpha (setting [1]) amounted to 43 nM. For the same compound, in the assay with TNF-α, the inhibition at 1 µM stood at 87%.

In the case of `CN(C)CCn1cc(-c2ccnc(NCc3ccc(F)cc3)c2)c(-c2ccc(F)cc2)n1` [Example A-274, 4-[1-[2-(dimethylamino)ethyl]-3-(4-fluorophenyl)-1H-pyrazol-4-yl]-N-[(4-fluorophenyl)methyl]-2-pyridinamine], the IC50 on human p38 kinase alpha (setting [3]) was less than 100 nM; in the assay on TNF-α (setting [4]), 920 nM.

With `COC(=O)CCCCCCC(=O)NCc1[nH]nc(-c2ccc(F)cc2)c1-c1ccncc1` [Example B-0088], the results for the inhibition at 1 µM on human p38 kinase alpha and in the assay on TNF-α were 96% and 9%, respectively.

`CCCOC(=O)NCc1[nH]nc(-c2ccc(F)cc2)c1-c1ccncc1` [Example B-0203]: the IC50 at human p38 kinase alpha (setting [1]) was found to be 160 nM. Besides, the inhibition at 1 µM in the assay on TNF-α amounted to 65%.

Turning to `CCOC(=O)c1ccc(NC(=O)NCc2[nH]nc(-c3ccc(F)cc3)c2-c2ccncc2)cc1` [Example B-0161], the inhibition at 10 µM on human p38 kinase alpha was 72%. Further, in the assay with TNF-α, the inhibition at 1 µM turned out to be 13%.

On to `O=S(=O)(NCc1[nH]nc(-c2ccc(F)cc2)c1-c1ccncc1)c1ccc(-c2ccccn2)s1` [Example B-0258], for which the IC50 at human p38 kinase alpha (setting [1]) was found to be 370 nM. Further, the inhibition at 1 µM with TNF-α was determined as 63%.

Take `CCCOC(=O)N[C@H](C)c1[nH]nc(-c2ccc(F)cc2)c1-c1ccncc1` [Example B-0425]: the IC50 at human p38 kinase alpha (setting [1]) came to 260 nM. In the assay with TNF-α, the inhibition at 1 µM came out at 54%.

On to `C[C@@H](NS(=O)(=O)C(F)(F)F)c1[nH]nc(-c2ccc(F)cc2)c1-c1ccncc1` [Example B-0391], for which, on human p38 kinase alpha (setting [1]), the IC50 came out at 860 nM. In addition, the inhibition at 1 µM with TNF-α amounted to 18%.

With `C[C@@H](NC(=O)c1cccc(C(F)(F)F)c1)c1[nH]nc(-c2ccc(F)cc2)c1-c1ccncc1` [Example B-0495], the IC50 on human p38 kinase alpha (setting [1]) amounted to 120 nM. For the same compound, in the assay on TNF-α, the inhibition at 1 µM stood at 25%.

As to `CCc1ccc(S(=O)(=O)NCc2[nH]nc(-c3ccc(F)cc3)c2-c2ccncc2)cc1` [Example B-0132], the inhibition at 1 µM is 76% on human p38 kinase alpha and 8% with TNF-α.

`COC(=O)c1ccccc1S(=O)(=O)NCc1[nH]nc(-c2ccc(F)cc2)c1-c1ccncc1` [Example B-0108]: the inhibition at 1 µM on human p38 kinase alpha came to 61%. Moreover, the IC50 with TNF-α (setting [2]) was 4850 nM.

As for `O=C(NCc1[nH]nc(-c2ccc(F)cc2)c1-c1ccncc1)c1ccc(F)cc1F` [Example B-0299], at human p38 kinase alpha (setting [1]), the half-inhibitory concentration (IC50) was 870 nM. The inhibition at 1 µM in the assay with TNF-α stood at 54%.

Consider `C[C@@H](NC(N)=O)c1[nH]nc(-c2ccc(F)cc2)c1-c1ccncc1` [Example B-0402], for which the IC50 at human p38 kinase alpha (setting [1]) was found to be 140 nM; with TNF-α (setting [2]), 1510 nM.

For `Cc1ccc(S(=O)(=O)NCc2[nH]nc(-c3ccc(F)cc3)c2-c2ccncc2)cc1` [Example B-0118], the IC50 at human p38 kinase alpha (setting [1]) came to 1180 nM; in the assay on TNF-α (setting [2]), 1290 nM.

For `Cc1cccc(-c2n[nH]cc2-c2ccnc(C)c2)c1` [Example A-143, 2-methyl-4-[3-(3-methylphenyl)-1H-pyrazol-4-yl]pyridine], the IC50 is less than 100 nM on human p38 kinase alpha (activated human p38 kinase alpha, PHAS-I substrate, 50 μM unlabeled ATP, read-out: p38 kinase IC50) and 301 nM in the assay on TNF-α (U-937, LPS-stimulated U937 cells, read-out: U937 Cell Assay IC50).

As to `CCS(=O)(=O)NCc1[nH]nc(-c2ccc(F)cc2)c1-c1ccncc1` [Example B-0105], the inhibition at 1 µM at human p38 kinase alpha turned out to be 78%. For the same compound, the IC50 in the assay with TNF-α (setting [2]) turned out to be 5000 nM.

On to `C[C@@H](NC(=O)c1ccno1)c1[nH]nc(-c2ccc(F)cc2)c1-c1ccncc1` [Example B-0364], for which the IC50 at human p38 kinase alpha (setting [1]) was 1440 nM. Moreover, the inhibition at 1 µM with TNF-α was found to be 27%.

With `COc1cc(NC(=O)NCc2[nH]nc(-c3ccc(F)cc3)c2-c2ccncc2)cc(OC)c1OC` [Example B-0191], the inhibition at 1 µM worked out at 40% on human p38 kinase alpha and 29% in the assay on TNF-α.

Regarding `O=S(=O)(NCc1[nH]nc(-c2ccc(F)cc2)c1-c1ccncc1)c1ccc(-c2ccon2)s1` [Example B-0262], at human p38 kinase alpha (setting [1]), the IC50 came out at 410 nM. Further, in the assay on TNF-α, the inhibition at 1 µM was found to be 89%.

Regarding `C#CCn1cc(-c2ccncc2)c(-c2ccc(F)cc2)n1` [Example A-294, 4-[3-(4-fluorophenyl)-1-(2-propynyl)-1H-pyrazol-4-yl]pyridine], the IC50 on human p38 kinase alpha (setting [3]) worked out at 15 nM; in the assay with TNF-α (setting [4]), 500 nM.

On to `O=S(=O)(NCc1[nH]nc(-c2ccc(F)cc2)c1-c1ccncc1)c1ccccc1Cl` [Example B-0240], for which the IC50 at human p38 kinase alpha (setting [1]) worked out at 200 nM. Also, in the assay on TNF-α, the inhibition at 1 µM is 70%.

For the compound `C[C@@H](NS(=O)(=O)c1cccc2ccccc12)c1[nH]nc(-c2ccc(F)cc2)c1-c1ccncc1` [Example B-0441], the IC50 at human p38 kinase alpha (setting [1]) came out at 800 nM. Moreover, in the assay on TNF-α, the inhibition at 1 µM is 58%.

Take `C[C@@H](NC(=O)[C@H]1CCCN1)c1[nH]nc(-c2ccc(F)cc2)c1-c1ccncc1` [Example B-0427]: at human p38 kinase alpha (setting [1]), the IC50 is 630 nM. The inhibition at 1 µM in the assay with TNF-α stood at 39%.
